Source: paper PMC11984392, “EphA2-targeted alpha-particle theranostics for enhancing PDAC treatment” (Theranostics, 2025)
*1 amine or outer side, *2 acyl side, *3 side chain or, on linkers, in order; H or OH if unused. Where a SMILES comes first, the peptide text is derived from it. Bridges are numbered along the chain shown (N, C = ends). [ ]: non-standard residue; d: D form. The star is where a group is joined. TATA = O=C(CC[*:1])N1CN(C(=O)CC[*:2])CN(C(=O)CC[*:3])C1; NOTA = O=C(O)CN1CCN(CC(=O)O)CCN(CC(=O)*)CC1; Hyp = O=C(O)[C@@H]1C[C@@H](O)CN1; hArg = N=C(N)NCCCC[C@H](N)C(=O)O; PEG2 = NCCOCCOCCC(=O)O; Sar = CNCC(=O)O

System: Panc1 tumor xenografts
Assay: Whole-body dynamic PET pharmacokinetics
Format: in vivo, NSG mice
Details: ~250 µCi i.v., remaining constant until 90 min
Experimental: Dynamic PET images were acquired on a Simultaneous 7T Bruker PET-MR scanner to evaluate the pharmacokinetics of [^68Ga]AJ201. Mice bearing Panc1 tumor xenografts were anesthetized under 2.5% isoflurane and a catheter was fixed in the tail vein before being secured on the PET-MR bed. An activity of ~250 µCi (9.3 MBq; 0.5 to 0.8 nmol) of [^68Ga]AJ201 was administered intravenously and whole-body PET dynamic scans were performed. Dynamic PET scans were initiated one min before radiotracer injection and acquired at varying intervals to capture early and late-phase kinetics: every 30 s from -1 to 5 min, every min from 5 to 15 min, every 3 min from 15 to 30 min, every 5 min from 30 to 60 min, and every 10 min from 60 to 90 min. The acquired PET data were reconstructed and corrected for radioactive decay and dead time using ParaVision 360 V2 by Bruker. The percentage of injected dose per cc (%ID/cc) values were obtained by drawing ROI on the tumor, muscle, heart, liver and kidney using PMOD software, and image fusion and visualization were also performed using PMOD software.

CC(C)C[C@@H]1NC(=O)[C@@H]2CSCCC(=O)N3CN(CN(C3)C(=O)CCSC[C@H](NC(=O)[C@H](CC(=O)O)NC(=O)[C@H](CCCCNC(=N)N)NC(=O)[C@H](C)NC(=O)CNC(=O)CN(C)C(=O)CN(C)C(=O)CN(C)C(=O)[C@H](CCCNC(=N)N)NC(=O)CNC(=O)CCOCCOCCNC(=O)CN3CCN(CC(=O)O)CCN(CC(=O)O)CC3)C(=O)N3C[C@H](O)C[C@H]3C(=O)N[C@@H](CC(C)C)C(=O)N[C@@H](C(C)C)C(=O)N[C@@H](CC(N)=O)C(=O)N3CCC[C@H]3C(=O)N[C@@H](CC(C)C)C(=O)N2)C(=O)CCSC[C@@H](C(N)=O)NC(=O)[C@H](CCCCNC(=N)N)NC(=O)[C@H](Cc2c[nH]c3ccccc23)NC(=O)[C@@H](CC(=O)O)NC(=O)[C@@H]2CCCN2C(=O)[C@H](Cc2c[nH]cn2)NC1=O [[^68Ga]AJ201, metal not drawn] ({NOTA-PEG2}-GR[Sar][Sar][Sar]GA[hArg]DC[Hyp]LVNPLCLHP[dD]W[hArg]C-NH2; linker 10-17-24 via TATA)
Time of peak tumor radioactivity (ROI analysis): 30 min
